Target: KRas (Homo sapiens, UniProt P01116, G12C)
Assay: KRas degradation in SW1573 cells by Western blot, normalized to GAPDH (data of Table 14)
Type: cell-based
Conditions: SW1573 cells
Procedure: Cell Lines, Antibodies, and Reagents. NCI-H2030 (CRL-5914) and SW1573 (CRL-2170) cells were purchased from ATCC. Both cell lines are homozygous for the G12C mutation in KRas. NCI-H2030 cells were cultured in RPMI-1640 medium containing 1% penicillin-streptomycin and 10% fetal bovine serum (FBS). SW1573 cells were cultured in DMEM containing 1% penicillin-streptomycin and 10% FBS. The KRas detection antibody (Cat. No. LS-C175665) was purchased from LifeSpan Biosciences and was used at a dilution of 1:2000. GAPDH was detected using an antibody purchased from Cell Signaling Technology (Cat. No. 5174) and was diluted 1:3000. Secondary anti-mouse and anti-rabbit detection antibodies were purchased from Cell Signaling Technology (Cat. Nos. 7076 and 7074, respectively).
Compound Treatment and Western Blotting of the Data of Table 14. Either NCI-H2030 or SW1573 cells were plated in 12-well plates and allowed to adhere overnight at 37° C. in an incubator containing 5% CO2. The following day, the medium was replaced with the appropriate medium lacking FBS to induce starvation. Cells were returned to the incubator for an additional 24 hours following media exchange. […] Cells were treated with VHL-based compounds for 24 hours and all other compounds for 72 hours. Following treatment, cells were lysed in RIPA buffer (Thermo Fisher Cat. No. 89900) containing phosphatase (Thermo Fisher Cat. No. 1861277) and protease (Thermo Fisher Cat. No. 78429) inhibitor cocktails. Lysates were cleared at 13,000 rpm for 15 minutes and supernatants were assayed for total protein concentration using the Pierce BCA assay system (Thermo Fisher Cat. No. 23225). For each sample, 10 μg total protein was resolved on a 12% Bis-Tris gel and then transferred to a nitrocellulose membrane. After blocking in 3% BSA in TBST (Tris-buffered Saline with 0.1% Tween-20) for 1 hour at room temperature, membranes were probed with the primary antibody (LS Bio Cat. No. LS-C175665) overnight at 4° C. After incubation with the secondary antibody, the following day membranes were visualized using the SuperSignal™ West Femto substrate (Thermo Fisher Cat. No. 34095). The KRas signal in each lane was normalized to GAPDH and percent degradation was either estimated as less than 25% by visual inspection (C in Table 13) or quantitated relative to the DMSO control lane using BIO-RAD Image Lab 5.2.1, and all data was plotted using GraphPad PRISM 6.07.
DC50 is the half-maximal degradation concentration—i.e., the concentration at which 50% degradation is observed. DMax is the maximum degradation efficacy is achieved—i.e., the maximal degradation observed) degradation data.

| SMILES | Percent Degradation at Indicated Concentration (μM) (0.1 μM) | Percent Degradation at Indicated Concentration (μM) (0.3 μM) | Percent Degradation at Indicated Concentration (μM) (1 μM) |
| --- | --- | --- | --- |
| C=CC(=O)N1CCN(c2nc(O[C@H](C)CN3CCC(OCCOc4ccc5c(c4)C(=O)N(C4CCC(=O)NC4=O)C5=O)CC3)nc3c(F)c(-c4cc(O)cc5ccccc45)c(Cl)cc23)CC1 (stereo partly drawn) [compound 426, 5-(2-((1-((2R)-2-((4-(4-acryloylpiperazin-1-yl)-6-chloro-8-fluoro-7-(3-hydroxynaphthalen-1-yl)quinazolin-2-yl)oxy)propyl)piperidin-4-yl)oxy)ethoxy)-2-(2,6-dioxopiperidin-3-yl)isoindoline-1,3-dione] | C (Percent Degradation: C ≤ 35) | C (Percent Degradation: C ≤ 35) | C (Percent Degradation: C ≤ 35) |
| C=CC(=O)N1CCN(c2nc(O[C@H](C)CN3CCC(OCCOCCOc4ccc5c(c4)C(=O)N(C4CCC(=O)NC4=O)C5=O)CC3)nc3c(F)c(-c4cc(O)cc5ccccc45)c(Cl)cc23)CC1 (stereo partly drawn) [compound 427, 5-(2-(2-((1-((2R)-2-((4-(4-acryloylpiperazin-1-yl)-6-chloro-8-fluoro-7-(3-hydroxynaphthalen-1-yl)quinazolin-2-yl)oxy)propyl)piperidin-4-yl)oxy)ethoxy)ethoxy)-2-(2,6-dioxopiperidin-3-yl)isoindoline-1,3-dione] | C (Percent Degradation: C ≤ 35) | C (Percent Degradation: C ≤ 35) | C (Percent Degradation: C ≤ 35) |
| C=CC(=O)N1CCN(c2nc(O[C@H](C)CN3CCC(OCCOCCOCCOc4ccc5c(c4)C(=O)N(C4CCC(=O)NC4=O)C5=O)CC3)nc3c(F)c(-c4cc(O)cc5ccccc45)c(Cl)cc23)CC1 (stereo partly drawn) [compound 428, 5-(2-(2-(2-((1-((2R)-2-((4-(4-acryloylpiperazin-1-yl)-6-chloro-8-fluoro-7-(3-hydroxynaphthalen-1-yl)quinazolin-2-yl)oxy)propyl)piperidin-4-yl)oxy)ethoxy)ethoxy)ethoxy)-2-(2,6-dioxopiperidin-3-yl)isoindoline-1,3-dione] | C (Percent Degradation: C ≤ 35) | C (Percent Degradation: C ≤ 35) | C (Percent Degradation: C ≤ 35) |
| C=CC(=O)N1CCN(c2nc(O[C@H](C)CN3CCC(OCCOCCOCCOCCOc4ccc5c(c4)C(=O)N(C4CCC(=O)NC4=O)C5=O)CC3)nc3c(F)c(-c4cc(O)cc5ccccc45)c(Cl)cc23)CC1 (stereo partly drawn) [compound 429] | C (Percent Degradation: C ≤ 35) | C (Percent Degradation: C ≤ 35) | C (Percent Degradation: C ≤ 35) |
| C=CC(=O)N1CCN(c2nc(O[C@H](C)CN3CCC(OCCOCCOCCOCCOCCOc4ccc5c(c4)C(=O)N(C4CCC(=O)NC4=O)C5=O)CC3)nc3c(F)c(-c4cc(O)cc5ccccc45)c(Cl)cc23)CC1 (stereo partly drawn) [compound 430, 5-((14-((1-((2R)-2-((4-(4-acryloylpiperazin-1-yl)-6-chloro-8-fluoro-7-(3-hydroxynaphthalen-1-yl)quinazolin-2-yl)oxy)propyl)piperidin-4-yl)oxy)-3,6,9,12-tetraoxatetradecyl)oxy)-2-(2,6-dioxopiperidin-3-yl)isoindoline-1,3-dione] | C (Percent Degradation: C ≤ 35) | C (Percent Degradation: C ≤ 35) | C (Percent Degradation: C ≤ 35) |
| C=CC(=O)N1CCN(c2nc(O[C@H](C)CN3CCC(CN4CCN(c5ccc6c(c5)C(=O)N(C5CCC(=O)NC5=O)C6=O)CC4)CC3)nc3c(F)c(-c4cc(O)cc5ccccc45)c(Cl)cc23)CC1 (stereo partly drawn) [compound 431, 5-(4-((1-((2R)-2-((4-(4-acryloylpiperazin-1-yl)-6-chloro-8-fluoro-7-(3-hydroxynaphthalen-1-yl)quinazolin-2-yl)oxy)propyl)piperidin-4-yl)methyl)piperazin-1-yl)-2-(2,6-dioxopiperidin-3-yl)isoindoline-1,3-dione] | C (Percent Degradation: C ≤ 35) | C (Percent Degradation: C ≤ 35) | C (Percent Degradation: C ≤ 35) |
| C=CC(=O)N1CCN(c2nc(O[C@H](C)CN3CCC(OCCOc4cc(-c5scnc5C)ccc4CNC(=O)[C@@H]4C[C@@H](O)CN4C(=O)[C@@H](c4cc(C)no4)C(C)C)CC3)nc3c2CCN(c2cc(O)cc4ccccc24)C3)CC1 [compound 436, (2S,4R)-N-(2-(2-((1-((R)-2-((4-(4-acryloylpiperazin-1-yl)-7-(3-hydroxynaphthalen-1-yl)-5,6,7,8-tetrahydropyrido[3,4-d]pyrimidin-2-yl)oxy)propyl)piperidin-4-yl)oxy)ethoxy)-4-(4-methylthiazol-5-yl)benzyl)-4-hydroxy-1-((R)-3-methyl-2-(3-methylisoxazol-5-yl)butanoyl)pyrrolidine-2-carboxamide] | C (Percent Degradation: C ≤ 35) | B (35 < B < 70) | B (35 < B < 70) |
| C=CC(=O)N1CCN(c2nc(O[C@H](C)CN3CCC(OCCOc4cc(-c5scnc5C)ccc4CNC(=O)[C@@H]4C[C@@H](O)CN4C(=O)[C@H](c4cc(C)no4)C(C)C)CC3)nc3c2CCN(c2cc(O)cc4ccccc24)C3)CC1 [compound 437, (2S,4R)-N-(2-(2-((14(R)-2-((4-(4-acryloylpiperazin-1-yl)-7-(3-hydroxynaphthalen-1-yl)-5,6,7,8-tetrahydropyrido[3,4-d1pyrimidin-2-yl)oxy)propyl)piperidin-4-yl)oxy)ethoxy)-4-(4-methylthiazo1-5-yl)benzyl)-4-hydroxy-1-((S)-3-methyl-2-(3-methylisoxazol-5-yl)butanoyl)pyrrolidine-2-carboxamide] | C (Percent Degradation: C ≤ 35) | C (Percent Degradation: C ≤ 35) | C (Percent Degradation: C ≤ 35) |
| C=CC(=O)N1CCN(c2nc(O[C@H](C)CN3CCC(OCCOCCOc4cc(-c5scnc5C)ccc4CNC(=O)[C@@H]4C[C@@H](O)CN4C(=O)[C@@H](c4cc(C)no4)C(C)C)CC3)nc3c2CCN(c2cc(O)cc4ccccc24)C3)CC1 [compound 438] | B (35 < B < 70) | C (Percent Degradation: C ≤ 35) | B (35 < B < 70) |
| C=CC(=O)N1CCN(c2nc(O[C@H](C)CN3CCC(OCCOCCOc4cc(-c5scnc5C)ccc4CNC(=O)[C@@H]4C[C@@H](O)CN4C(=O)[C@H](c4cc(C)no4)C(C)C)CC3)nc3c2CCN(c2cc(O)cc4ccccc24)C3)CC1 [compound 439, (2S,4R)-N-(2-(2-(2-((1-((R)-2-((4-(4-acryloylpiperazin-1-yl)-7-(3-hydroxynaphthalen-1-yl)-5,6,7,8-tetrahydropyrido[3,4-d]pyrimidin-2-yl)oxy)propyl)piperidin-4-yl)oxy)ethoxy)ethoxy)-4-(4-methylthiazol-5-yl)benzyl)-4-hydroxy-1-((S)-3-methyl-2-(3-methylisoxazol-5-yl)butanoyl)pyrrolidine-2-carboxamide] | C (Percent Degradation: C ≤ 35) | C (Percent Degradation: C ≤ 35) | C (Percent Degradation: C ≤ 35) |
| C=CC(=O)N1CCN(c2nc(O[C@H](C)CN3CCC(OCCOCCOCCOc4cc(-c5scnc5C)ccc4CNC(=O)[C@@H]4C[C@@H](O)CN4C(=O)[C@@H](c4cc(C)no4)C(C)C)CC3)nc3c2CCN(c2cc(O)cc4ccccc24)C3)CC1 [compound 440, (2S,4R)-N-(2-(2-(2-(2-((1-((R)-2-((4-(4-acryloylpiperazin-1-yl)-7-(3-hydroxynaphthalen-1-yl)-5,6,7,8-tetrahydropyrido[3,4-d]pyrimidin-2-yl)oxy)propyl)piperidin-4-yl)oxy)ethoxy)ethoxy)ethoxy)-4-(4-methylthiazol-5-yl)benzyl)-4-hydroxy-1-((R)-3-methyl-2-(3-methylisoxazol-5-yl)butanoyl)pyrrolidine-2-carboxamide] | C (Percent Degradation: C ≤ 35) | C (Percent Degradation: C ≤ 35) | C (Percent Degradation: C ≤ 35) |

Source: patent US12552783B2, “Modulators of proteolysis and associated methods of use” (Arvinas Operations, Inc., priority 2018, dated 2026)
